Laboratory results: the METLIN SMRT retention time set (Domingo-Almenara et al. 2019)

Assay: gradient 5% acetonitrile 3 min, to 50% in 2 min, to 85% in 15 min, held 3 min, 100 µL/min
Details: column: Zorbax Extend-C18 2.1 x 50 mm; eluents: water / acetonitrile, 0.1% formic acid
Method in brief: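 Over 3 months, pure standards in mixtures of ~100 molecules were run by HPLC coupled to a quadrupole time-of-flight mass spectrometer in positive and negative ionization mode. The column was a Zorbax Extend-C18 (2.1 × 50 mm, 1.8 μm) at 100 μL/min, eluted with water and acetonitrile each holding 0.1% formic acid, with 40 μL dead and 900 μL dwell volumes. Retention time was determined from adduct peaks chosen by software and checked manually.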

| SMILES | RP-LC retention time |
| --- | --- |
| N#Cc1ccc(-c2nc(-c3ccc4c(c3)ncn4CCN3CCCC3)no2)cc1 | 638 s |
| O=C(Nc1ccccc1Cl)C(=O)c1cn(CC(=O)N2CCOCC2)c2ccccc12 | 1040 s |
| Cc1oc(C2CCN(S(=O)(=O)Cc3ccccc3)CC2)nc1C(=O)N1CCCC1 | 861 s |
| COCC(=O)NCC12CCCC=C1NC(=O)CC2 (centres undefined) | 605 s |
| CCN1CCN(C(=O)c2cn(-c3ccc(NC(=O)CC(C)C)cn3)cn2)CC1 | 589 s |
| COc1ccccc1N1CCN(c2nnc(SC(C)C)s2)CC1 | 952 s |
| Cn1cc(CCN2CCC(C(=O)NCc3ccc(F)cc3Cl)CC2)c2cccnc21 | 640 s |
| CC(C)n1cnc(S(=O)(=O)N2CCCC(C(=O)Nc3ccc(Br)cc3F)C2)c1 (centres undefined) | 893 s |
| Cn1cc(CCN2CCN(S(=O)(=O)c3ccc(Cl)cc3)CC2)c2cccnc21 | 645 s |
| O=C(CN1CCN(Cc2ccc(F)cc2)C(=O)C1=O)N1CCN(Cc2ccccc2)CC1 | 603 s |
| CCOc1ccccc1CNC(=O)C1CCCN(c2nccnc2Sc2ccc(C)cc2)C1 (centres undefined) | 1190 s |
| O=C(CN1CC(c2nc(-c3cccs3)no2)C1)N1CCc2ccccc21 | 605 s |
| O=C(c1ccc2nsnc2c1)N1CCN(S(=O)(=O)C2CC2)CC1 | 657 s |
| O=C(Cn1nc(C2CC2)c2cnn(-c3ccc(F)cc3)c2c1=O)NCC1CCCO1 (centres undefined) | 729 s |
| CCOc1ccccc1OCc1nn2c(-c3ccoc3C)nnc2s1 | 970 s |
| COCCNC(=O)C1CCCN(C(=O)c2cc(C)cc(C)c2)C1 (centres undefined) | 686 s |
| C=Cc1ccc(Cn2nc3c(S(=O)(=O)N4CCCCCC4)cccn3c2=O)cc1 | 999 s |
| CCCCOc1ccc(C(=O)N2CCNC(=O)C2CC(=O)OC2CCCCC2)cc1 (centres undefined) | 1000 s |
| COCc1c(C(=O)O)nnn1Cc1ccc(OC)c(F)c1 | 658 s |
| Cc1cc2c(cc3n2CC(C)(C(=O)NC2CCCCC2)N(Cc2cccnc2)C3=O)o1 (centres undefined) | 658 s |
| COCCN1C(=O)c2ccccc2C(C(=O)NCCN2CCOCC2)C1c1ccc(F)cc1 (centres undefined) | 628 s |
| O=C(NC1CCS(=O)(=O)C1)C1Cn2cccc2C(=O)N1Cc1ccccc1 (centres undefined) | 652 s |
| O=C(Nc1ccccc1Cl)N1CCC(N2CCN(Cc3cccc(F)c3)C(=O)C2=O)CC1 | 749 s |

| SMILES | RP-LC retention time |
| --- | --- |
| CSc1ccc(CN2CC(c3nc(C)no3)C2)cc1 | 530 s |
| Cn1nc(CNC(=O)C2(C)CCCCC2)c2c1CCN(S(C)(=O)=O)C2 | 702 s |
| CCC(=O)Nc1ccc(N(C)CCc2c(C)nn(C)c2C)c(C(=O)O)c1 | 572 s |
| CCOC(=O)c1[nH]c(C)c(CCC(=O)NCCN2CCN(C)CC2)c1C | 547 s |
| CCN1CCN(c2ncc3c(n2)CCN(Cc2cccc(Br)c2)C3)CC1 | 550 s |
| O=C(NCCCc1ccccc1)c1nnc(-c2ccc(S(=O)(=O)N3CCCCC3)cc2)o1 | 1070 s |
| CCCN(CC1CCOC1)S(=O)(=O)c1cccc(C(F)(F)F)c1 (centres undefined) | 1000 s |
| O=c1cc(-c2ccccc2)nc2n1CCN2CCCN1CCOCC1 | 582 s |
| CC(C)(C)c1cccc(Nc2nc3ccncc3n(Cc3ccccc3)c2=O)c1 | 963 s |
| Cc1ccc(S(=O)(=O)c2ccc([N+](=O)[O-])o2)cc1 | 873 s |
| O=C1c2ccccc2S(=O)(=O)N1CC(O)COc1ccc(Cl)cc1Cl (centres undefined) | 900 s |
| CN1c2cc(F)ccc2C(=O)NC12CCN(C(=O)Cc1ccc(Cl)cc1)CC2 | 919 s |
| CCC1(O)CCC12CCN(C(=O)c1ccsc1)CC2 (centres undefined) | 716 s |
| COc1ccc(-c2cc(C(=O)N(C)C3CCN(C)CC3)nn2C2CCS(=O)(=O)C2)cc1 (centres undefined) | 600 s |
| CCC1=C(c2ccc(C)cc2)S(=O)(=O)N=C1N1CCC(C(=O)N2CCN(C)CC2)CC1 | 641 s |
| CN1C(=O)c2cccn2CC1C(=O)NC1CCCCC1 (centres undefined) | 681 s |
| COc1ccc2c(c1)C1(CCN(C(=O)c3ccc(C#N)cc3)C1)C(=O)N2 (centres undefined) | 762 s |
| O=C(C1CC(=O)N(c2ccc(F)cc2)C1)N1CCC(c2c[nH]c3ccccc23)CC1 (centres undefined) | 810 s |
| OCCN1CCN(c2ncnc3c2cnn3-c2ccc(Cl)cc2)CC1 | 650 s |
| O=C(Cc1ccc(NC(=O)C2COc3ccccc3O2)cc1)NCC(F)(F)F (centres undefined) | 576 s |
| CCCNC(=O)C1CCCN(c2nc3ncn(CC(=O)Nc4ccc(F)cc4)c(=O)c3s2)C1 (centres undefined) | 692 s |
| O=C(Oc1ccccc1)N1CCC(CNC(=O)C2(c3ccccc3)CCOCC2)CC1 | 816 s |

More lines, now with the values ahead:

| RP-LC retention time | SMILES |
| --- | --- |
| 747 s | Cc1ccc(NC(=O)Nc2ccc3nncn3c2)c(C)c1 |
| 793 s | CCCN1C(=O)c2c(C(=O)N(C)Cc3ccccc3)ncn2CC1(C)C(=O)NCc1ccc(C)cc1 (centres undefined) |
| 635 s | Cc1cc(=O)n(CC(=O)Nc2cc(F)ccc2C)c(N2CCCC2)n1 |
| 601 s | COc1ccc(C)cc1Nc1c(C(=O)N2CCCC2)cnc2nc(C)ccc12 |
| 852 s | COCCN1C(=O)c2ccccc2C(C(=O)Nc2ccc(OC)cc2)C12CCCC2 (centres undefined) |
| 962 s | Cc1cccc(C(=O)Nc2nc(-c3ccc4c(c3)NC(=O)C(C)O4)cs2)c1 (centres undefined) |
| 886 s | Cc1ccc(Nc2nc(C)cc(N3CCN(S(=O)(=O)c4cccc(C(F)(F)F)c4)CC3)n2)cc1 |
| 607 s | CCN1CCN(c2cc(C(=O)O)c3cc(NS(=O)(=O)c4cc(F)ccc4C)ccc3n2)CC1 |
| 880 s | Cc1ccc(NC(=O)N2CCCC2c2cc(C)no2)c(Cl)c1 (centres undefined) |
| 780 s | CC(NC(=O)Cc1nnc2cc(-c3nc(C4CC4)no3)ccn12)c1ccc(F)cc1 (centres undefined) |
| 716 s | CCNC(=O)C1CCCN(c2nc3ncn(CC(=O)NCc4ccc(C)cc4)c(=O)c3s2)C1 (centres undefined) |
| 788 s | Cc1ccc(-c2nc3ccc(C)cn3c2Nc2ccccc2C)cc1 |
| 902 s | COc1ccc(Cl)cc1C(=O)Nc1cc(-c2cccnc2)no1 |
| 818 s | CCNC(=O)C1c2ccccc2C(=O)N(CC(C)C)C1c1cccs1 (centres undefined) |
| 1190 s | O=C(Nc1ccc(-c2nc(-c3ccccc3)co2)cc1)c1ccc(Br)o1 |
| 765 s | COc1ccc(-c2nc3ncccn3c2Nc2c(C)cccc2C)cc1 |
| 802 s | COc1cc(NC(=O)Cn2cccc2-c2nnc(C3CC3)o2)cc(OC)c1 |
| 664 s | Cc1cccc2nnc(N3CCCC(C(=O)Nc4ccc5c(c4)OCO5)C3)n12 (centres undefined) |
| 600 s | O=C(Nc1nnc(-c2ccncc2)o1)c1cc(=O)c2ccccc2o1 |
| 706 s | O=C(Nc1cc(F)ccc1F)Nc1c(-c2ccc(F)cc2)nc2ccccn12 |
| 1290 s | COC(=O)c1ccc2c(=O)n(-c3ccc(OC)cc3)c(N3CCN(c4ccccn4)CC3)nc2c1 |
| 798 s | Cc1ccc(C)c(-c2nnc(NC(=O)c3ccccc3[N+](=O)[O-])o2)c1 |

| RP-LC retention time | SMILES |
| --- | --- |
| 1100 s | Cc1ccc(N2CC(c3noc(-c4ccc(C)c(F)c4)n3)CC2=O)cc1 (centres undefined) |
| 802 s | Cc1ccccc1Nc1c(-c2cccc(Cl)c2)nc2c(C)cccn12 |
| 768 s | COc1cc(C(=O)N2CCCN(c3cc(-c4ccc(Br)cc4)[nH]n3)CC2)cc(OC)c1OC |
| 810 s | Cc1nc(-c2noc(-c3ccccc3)n2)cn1CC(=O)NCc1ccccc1 |
| 944 s | COc1ccccc1-c1noc(C2CCCN2C(=O)Nc2cccc(Br)c2)n1 (centres undefined) |
| 779 s | Cc1cc(C)nc(SCC(=O)Nc2cccc3ccccc23)n1 |
| 724 s | Cc1cc(Cl)ccc1NC(=O)N1CCCC1c1nncn1-c1ccccc1 (centres undefined) |
| 995 s | Cc1ccc(NC(=O)N2CCCC(C)(C(=O)NCc3ccccc3)C2)cc1Cl (centres undefined) |
| 622 s | O=C(Nc1cc(-c2ccco2)nn1CCO)c1ccc(S(=O)(=O)N2CCOCC2)cc1 |
| 775 s | COc1ccc(CNC2=NCCNC23CCN(S(=O)(=O)c2ccc(C)cc2C)CC3)cc1 |
| 700 s | Cc1ccc(-c2nc3cnccn3c2NCCC(=O)NCc2cccs2)cc1 |
| 672 s | CC(C)c1ccc(C(=O)Nc2nc3ccccc3[nH]2)cc1 |
| 674 s | Cc1ccc(-c2cc(C(=O)N3CCN(c4ccccn4)CC3)nn2C2CCS(=O)(=O)C2)cc1C (centres undefined) |
| 1090 s | COc1ccc(-c2nc(CN3C(=O)C(O)(c4ccc(C)cc4)c4ccccc43)c(C)o2)cc1 (centres undefined) |
| 943 s | Cc1cccc(NC(=O)C2CCN(S(C)(=O)=O)c3cc(C)ccc3O2)c1 (centres undefined) |
| 899 s | Cc1nc(Cn2cccc2C(=O)Nc2ccc(Cl)cc2)no1 |
| 912 s | O=C(Nc1cccc(OCc2nnc(-c3ccccc3)o2)c1)c1cncc(Br)c1 |
| 744 s | CCN1c2ccc(C)cc2C(=O)NC12CCN(C(=O)c1ccc(OC)c(OC)c1)CC2 |
| 1020 s | O=C1C2N=NN(Cc3nc(-c4ccccc4Cl)no3)C2C(=O)N1c1ccc2c(c1)OCO2 (centres undefined) |
| 1240 s | CC(C)c1ccc(OCC(=O)Nc2nc(-c3ccccc3)cs2)cc1 |
| 1120 s | COc1cc(OC)cc(-c2nc(-c3ccc(NS(=O)(=O)c4cccs4)cc3)no2)c1 |
| 792 s | CC(C(=O)NCc1nn(C)c2ccccc12)c1ccccc1 (centres undefined) |
